The results in this text go back to ChEMBL document CHEMBL1137417, “Design, synthesis, and biological evaluation of hydroquinone derivatives of 17-amino-17-demethoxygeldanamycin as potent, water-soluble inhibitors of Hsp90” (J Med Chem, 2006).

In one test the target is Endoplasmin (Canis lupus familiaris, UniProt P41148). In words: Inhibition of BODIPY-AG binding to dog Grp94.
The next test deals with SK-BR-3. In words: Inhibition of human SKBR3 cell growth. In kind it is functional.
In another test the test system is SK-OV-3. Briefly: Inhibition of human SKOV3 cell growth. In kind it is functional.
For test [1], the target named is T1, Heat shock protein HSP90 (Homo sapiens, UniProt P07900+P08238). Briefly: Inhibition of BODIPY-AG binding to human HSP90. The class given is protein assay.
Test [2] has as its target T1, Heat shock protein HSP90. In words: Degradation of Her2 in SKBR3 cells. In kind it is functional, cell-based. Particulars: sk-br-3.
Test [3] addresses T1, Heat shock protein HSP90. In words: Degradation of Her2 in SKOV3 cells. In kind it is functional, cell-based. Particulars: sk-ov-3.
Test [4] addresses T1, Heat shock protein HSP90. In words: Upregulation of Hsp70 in SKOV3 cells. In kind it is functional, cell-based. Particulars: sk-ov-3.
The target of test [5] is T1, Heat shock protein HSP90. In words: Upregulation of Hsp70 in SKBR3 cells. The class given is functional, cell-based. Particulars: sk-br-3.

pEC50: −log10 of the molar value.

Sequence of Endoplasmin (P41148 whole entry): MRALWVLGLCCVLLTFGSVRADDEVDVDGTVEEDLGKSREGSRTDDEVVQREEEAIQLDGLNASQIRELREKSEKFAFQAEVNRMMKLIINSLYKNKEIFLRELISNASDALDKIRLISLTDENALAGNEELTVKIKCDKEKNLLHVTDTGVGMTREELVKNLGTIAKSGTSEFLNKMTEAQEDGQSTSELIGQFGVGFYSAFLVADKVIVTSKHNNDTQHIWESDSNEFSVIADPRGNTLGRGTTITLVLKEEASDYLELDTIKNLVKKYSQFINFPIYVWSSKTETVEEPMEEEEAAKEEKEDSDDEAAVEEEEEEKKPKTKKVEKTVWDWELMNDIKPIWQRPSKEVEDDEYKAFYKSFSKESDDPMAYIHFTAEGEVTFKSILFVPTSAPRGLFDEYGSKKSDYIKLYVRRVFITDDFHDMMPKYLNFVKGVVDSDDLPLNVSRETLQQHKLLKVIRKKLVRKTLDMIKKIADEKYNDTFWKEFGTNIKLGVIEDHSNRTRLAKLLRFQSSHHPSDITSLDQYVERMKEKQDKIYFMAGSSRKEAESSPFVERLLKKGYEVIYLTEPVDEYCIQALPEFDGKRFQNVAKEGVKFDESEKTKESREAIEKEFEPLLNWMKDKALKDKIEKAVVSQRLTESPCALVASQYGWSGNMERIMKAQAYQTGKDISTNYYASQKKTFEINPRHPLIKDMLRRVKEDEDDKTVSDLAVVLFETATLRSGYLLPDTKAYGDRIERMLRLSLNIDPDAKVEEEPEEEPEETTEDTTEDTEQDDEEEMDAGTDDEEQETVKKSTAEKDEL

What is called pEC50 is −log10 of the EC50, conventionally taken in molar units. The low end stands for a large EC50, the high end for a small EC50. The term GI50 denotes the concentration giving 50% growth inhibition. Compound `CO[C@H]1/C=C\C=C(/C)C(=O)NC2=CC(=O)C(NCCN(C)C)=C(C[C@@H](C)C[C@H](OC)[C@H](O)[C@@H](C)/C=C(\C)[C@@H]1OC(N)=O)C2=O` [ALVESPIMYCIN] showed a pEC50 on Endoplasmin of 7.19. Further, the 50% growth inhibitory concentration (GI50) in the test with SK-BR-3 was 0.029 µM; with SK-OV-3 it was 0.032 µM.

`C=CCNC1=C2C[C@@H](C)C[C@H](OC)[C@H](O)[C@@H](C)/C=C(\C)[C@H](OC(N)=O)[C@@H](OC)/C=C\C=C(/C)C(=O)NC(=CC1=O)C2=O` [TANESPIMYCIN] had a negative-log EC50 (pEC50) on Endoplasmin of 6.91. In addition, the figures for the GI50 in the test on SK-BR-3 and with SK-OV-3 were 0.017 µM and 0.015 µM, respectively.

As a reminder, the EC50 is the concentration at which the effect is half-maximal. A low value points to greater potency. On to `C=CCNc1c(O)cc2c(O)c1C[C@@H](C)C[C@H](OC)[C@H](O)[C@@H](C)/C=C(\C)[C@H](OC(N)=O)[C@@H](OC)/C=C\C=C(/C)C(=O)N2.Cl` [RETASPIMYCIN HYDROCHLORIDE], for which the EC50 on Heat shock protein HSP90 [1] was determined as 0.063 µM; at Heat shock protein HSP90 [2] it was 0.02 µM; on Heat shock protein HSP90 [3], 0.027 µM; on Heat shock protein HSP90 [4], 0.016 µM. Moreover, the pEC50 on Endoplasmin was 6.92. For the same compound, the figures for the GI50 in the test on SK-BR-3 and in the test with SK-OV-3 were 0.022 µM and 0.052 µM, respectively.

As to `C=CCN1C(=O)COc2cc3c(O)c(c21)C[C@@H](C)C[C@H](OC)[C@H](O)[C@@H](C)/C=C(\C)[C@H](OC(N)=O)[C@@H](OC)/C=C\C=C(/C)C(=O)N3`, the EC50 was found to be 0.541 µM on Heat shock protein HSP90 [1]; 0.19 µM at Heat shock protein HSP90 [2]; 0.415 µM on Heat shock protein HSP90 [3]; 0.311 µM at Heat shock protein HSP90 [5]; 1.005 µM at Heat shock protein HSP90 [4]. The results for the GI50 with SK-BR-3 and in the test with SK-OV-3 were 0.739 µM and 0.726 µM, respectively.

For `Nc1ncnc2c1ncn2[C@@H]1O[C@H](COP(=O)(O)OP(=O)(O)O)[C@@H](O)[C@H]1O` [ADENOSINE DIPHOSPHATE], the EC50 at Heat shock protein HSP90 [1] is 87 µM. In addition, on Endoplasmin, the pEC50 is 4.68.

`CO[C@H]1/C=C\C=C(/C)C(=O)Nc2cc(O)c(N)c(c2O)C[C@@H](C)C[C@H](OC)[C@H](O)[C@@H](C)/C=C(\C)[C@@H]1OC(N)=O.Cl`: the concentration giving a half-maximal response (EC50) at Heat shock protein HSP90 [1] was 0.034 µM; on Heat shock protein HSP90 [3], 0.031 µM; on Heat shock protein HSP90 [5], 0.058 µM; at Heat shock protein HSP90 [4] it was 0.01 µM. For the same compound, on Endoplasmin, the negative-log EC50 (pEC50) was 7.32. Moreover, the results for the GI50 in the test on SK-BR-3 and in the test with SK-OV-3 were 0.05 µM and 0.017 µM, respectively.

On to `CO[C@H]1/C=C\C=C(/C)C(=O)NC2=CC(=O)C(NC[C@H](O)CO)=C(C[C@@H](C)C[C@H](OC)[C@H](O)[C@@H](C)/C=C(\C)[C@@H]1OC(N)=O)C2=O`, for which the EC50 on Heat shock protein HSP90 [1] amounted to 0.066 µM; on Heat shock protein HSP90 [2], 0.141 µM; at Heat shock protein HSP90 [3], 4.585 µM; on Heat shock protein HSP90 [5], 0.14 µM; at Heat shock protein HSP90 [4] it was 0.853 µM. The negative-log EC50 (pEC50) at Endoplasmin was 7.14. Moreover, the results for the GI50 in the test on SK-BR-3 and in the test with SK-OV-3 were 0.724 µM and 2.02 µM, respectively.

As for `C=CCn1c(=O)oc2cc3c(O)c(c21)C[C@@H](C)C[C@H](OC)[C@H](O)[C@@H](C)/C=C(\C)[C@H](OC(N)=O)[C@@H](OC)/C=C\C=C(/C)C(=O)N3`, the half-maximal effective concentration (EC50) was determined as 0.603 µM on Heat shock protein HSP90 [1]; 1.046 µM on Heat shock protein HSP90 [2]; 0.742 µM at Heat shock protein HSP90 [3]; 0.384 µM at Heat shock protein HSP90 [5]; 2.283 µM at Heat shock protein HSP90 [4]. Further, the figures for the GI50 with SK-BR-3 and in the test on SK-OV-3 were 0.583 µM and 1.24 µM, respectively.

Turning to `C=CCNc1c(O)cc2nc3oc2c1C[C@@H](C)C[C@H](OC)[C@H](O)[C@@H](C)/C=C(\C)[C@H](OC(N)=O)[C@@H](OC)/C=C\C=C\3C.Cl`, the EC50 was over 10 µM on Heat shock protein HSP90 [1], 0.585 µM at Heat shock protein HSP90 [2], 0.435 µM at Heat shock protein HSP90 [3] and 3.229 µM at Heat shock protein HSP90 [4]. At Endoplasmin, the negative-log EC50 (pEC50) was under 5.00. The results for the GI50 in the test on SK-BR-3 and with SK-OV-3 were 1.78 µM and 0.371 µM, respectively.

Turning to `CO[C@H]1/C=C\C=C(/C)C(=O)NC2=CC(=O)C(N)=C(C[C@@H](C)C[C@H](OC)[C@H](O)[C@@H](C)/C=C(\C)[C@@H]1OC(N)=O)C2=O`, the EC50 turned out to be 0.034 µM at Heat shock protein HSP90 [1]; 0.008 µM on Heat shock protein HSP90 [2]; 0.053 µM at Heat shock protein HSP90 [3]; 0.017 µM at Heat shock protein HSP90 [5]; 0.006 µM on Heat shock protein HSP90 [4]. For the same compound, the pEC50 on Endoplasmin is 7.32. For the same compound, the values for the GI50 in the test on SK-BR-3 and with SK-OV-3 were 0.025 µM and 0.014 µM, respectively.

As to `CO[C@H]1/C=C\C=C(/C)C(=O)Nc2cc(O)c(NC[C@H](O)CO)c(c2O)C[C@@H](C)C[C@H](OC)[C@H](O)[C@@H](C)/C=C(\C)[C@@H]1OC(N)=O.Cl`, the half-maximal effective concentration (EC50) was 0.091 µM on Heat shock protein HSP90 [1]; 0.321 µM at Heat shock protein HSP90 [2]; 0.756 µM on Heat shock protein HSP90 [3]; 0.102 µM at Heat shock protein HSP90 [5]; over 10 µM at Heat shock protein HSP90 [4]. Besides, the pEC50 at Endoplasmin was 6.88. Besides, the concentration for 50% growth inhibition (GI50) with SK-BR-3 was 0.832 µM; in the test on SK-OV-3, 1.11 µM.

On Heat shock protein HSP90 [1], `Nc1ncnc2c1ncn2[C@@H]1O[C@H](COP(=O)(O)OP(=O)(O)OP(=O)(O)O)[C@@H](O)[C@H]1O` [ADENOSINE TRIPHOSPHATE] showed an EC50 of 1500 µM. The negative logarithm of the EC50 (pEC50) at Endoplasmin is 4.72.
